According to US20110118229A1, “2-ARYLMETHYLAZETIDINE-CARBAPENEM-3-CARBOXYLIC ACID ESTER DERIVATIVE OR ITS SALT, PROCESS FOR THE PREPARATION THEREOF AND PHARMACEUTICAL COMPOSITION COMPRISING THE SAME” (KUKJE PHARM. IND. CO., LTD., priority 2007, published 2011):
Values after ≈ are worked out from the molar mass of the structure shown.

Columns and labels:
[1] = Test of Pharmacokinetics in mice (blood concentration by bioassay); conditions: I.C.R mice, 40 mg/kg; for AUC (area under blood concentration curve): bioassay
Experimental: The pharmacokinetics of the compounds of the present invention was determined using mice. […] Blood samples were collected from mice tails at 10 min., 20 min., 30 min., 45 min., 1 hour, 1.5 hours, 2 hours, 3 hours and 4 hours after the administration. […] Blood samples were collected from mice tails in the same manner described above.
The concentrations of each compound in blood were measured using bioassay methods: Agar plate was prepared with agar medium containing 1% Streptococcus Pyogenes 77A culture solution, and the blood samples and the diluted standards (each of which were obtained by dilution of the already-known concentration by two times) were added to wells formed on the plates. The plate was stored at 4° C. for 1 hour to is allow the sample to spread, and incubated at 37° C. for 18 hours. Diameters of each inhibition-circle were measured and then the concentration of the compounds in blood was calculated, based on the calibration curve obtained from the diluted standards.

[2] = system: I.C.R. mice; test: Acute Toxicity Test, oral, mice; type: in vivo; conditions: observed 7 days
Experimental: The acute toxicity of the compound of Example 1 was tested using several groups of I.C.R. mice each of 10 mice. 500 mg/kg, 1,000 mg/kg, and 2,000 mg/kg doses of the compound of Example 1 were orally administered. […] Thus, LD50 was placed at a level higher than 2,000 mg/kg. The compound of Example 1 is thus a largely non-toxic antibiotic.
In addition, acute toxicity of the compounds of Examples 10 and 17 was tested using two groups of I.C.R. mice each of 5 mice/2 groups. 1,000 mg/kg, 2,000 mg/kg, and 3,000 mg/kg doses of the compounds of Examples 10 to 17 were orally administered. […] Thus, LD50 was placed at a level higher than 3,000 mg/kg. Therefore, the compounds of Examples 10 to and 17 are non-toxic antibiotics.

[3] = Chemical Stability Test (HPLC purity on storage); type: physicochemical
Experimental: 500 mg of the compound prepared in Example 10 was charged into a glass bottle, and HPLC purities of the compound were measured at the condition of 40° C. and a humidity of 75%, at 1 week, 2 week, 3 week, and 1 month. The HPLC purities were obtained by comparing each of the measured HPLC amounts with the initial HPLC amount.

[4] = system: Streptococcus Levo. S (4); test: Minimum Inhibitory Concentration (MIC); type: cell-based; design: unit not given here; conditions: 4 strains
Source text: (§1) The metabolite has a wide spectrum of antibacterial activities against Gram-negative and Gram-positive bacteria and excellent antibacterial activities against resistant bacteria such as methicillin-resistant Staphylococcus aurus (MRSA) and quinolone-resistant strains (QRS), as in WO2006/025634 by the present inventors.

[5] = system: Staphylococcus aureus (10), MRSA; test: Minimum Inhibitory Concentration (MIC); type: cell-based; design: unit not given here; conditions: 10 strains
Source text: as §1

[6] = system: Klebsiella pneumoniae (4); test: Minimum Inhibitory Concentration (MIC); type: cell-based; design: unit not given here; conditions: 4 strains
Source text: as §1

[7] = system: Streptococcus pyogenes (2); test: Minimum Inhibitory Concentration (MIC); type: cell-based; design: unit not given here; conditions: 2 strains
Source text: as §1

[8] = system: Moraxella catarrhalis AMP R(3); test: Minimum Inhibitory Concentration (MIC); type: cell-based; design: unit not given here; conditions: 3 strains
Source text: as §1

[9] = system: Staphylococcus aureus (5), QRS; test: Minimum Inhibitory Concentration (MIC); type: cell-based; design: unit not given here; conditions: 5 strains
Source text: as §1

[10] = system: Escherichia coli (4); test: Minimum Inhibitory Concentration (MIC); type: cell-based; design: unit not given here; conditions: 4 strains
Source text: as §1

[11] = system: Streptococcus Levo. R (4); test: Minimum Inhibitory Concentration (MIC); type: cell-based; design: unit not given here; conditions: 4 strains
Source text: as §1

[12] = system: Streptococcus faecium (1); test: Minimum Inhibitory Concentration (MIC); type: cell-based; conditions: 1 strain
Source text: as §1

[13] = system: Klebsiella pneumoniae ATCC 13883; test: Minimum Inhibitory Concentration (MIC); type: cell-based
Source text: as §1

[14] = system: Staphylococcus aureus (2); test: Minimum Inhibitory Concentration (MIC); type: cell-based; conditions: 2 strains
Source text: as §1

[15] = system: Streptococcus ATCC 496 (4); test: Minimum Inhibitory Concentration (MIC); type: cell-based
Source text: as §1

[16] = system: Moraxella catarrhalis AMP S(3); test: Minimum Inhibitory Concentration (MIC); type: cell-based; conditions: 3 strains
Source text: as §1

[17] = system: Enterobacter cloacae ATCC 13880; test: Minimum Inhibitory Concentration (MIC); type: cell-based
Source text: as §1

[18] = system: Streptococcus pneumoniae Pen. S (4); test: Minimum Inhibitory Concentration (MIC); type: cell-based; conditions: 4 strains
Source text: as §1

[19] = system: GBBS ATCC 12386; test: Minimum Inhibitory Concentration (MIC); type: cell-based
Source text: as §1

[20] = system: Enterobacter cloacae P 99(2)3; test: Minimum Inhibitory Concentration (MIC); type: cell-based
Source text: as §1

[21] = system: Salmonella typhimurium 179; test: Minimum Inhibitory Concentration (MIC); type: cell-based; conditions: strain 179
Source text: as §1

[22] = system: Klebsiella oxytoca 1082; test: Minimum Inhibitory Concentration (MIC); type: cell-based; conditions: strain 1082
Source text: as §1

[23] = system: Streptococcus pneumoniae Pen. R (4); test: Minimum Inhibitory Concentration (MIC); type: cell-based; conditions: 4 strains
Source text: as §1

[24] = system: Staphylococcus aureus ATCC 29213; test: Minimum Inhibitory Concentration (MIC); type: cell-based
Source text: as §1

[25] = oral, 500, 1,000 and 2,000 mg/kg
[26] = oral, 1,000, 2,000 and 3,000 mg/kg

C[C@@H](O)[C@H]1C(=O)N2C(C(=O)OCOC(=O)C(C)(C)C)=C(SC3CN(Cc4ccc(F)cc4)C3)[C@H](C)[C@H]12 [Example 1, pivaloyloxymethyl(1R,5S,6S)-2-[(1-(4-fluorobenzyl)azetidin-3-yl)thio]-6-[(R)-1-hydroxyethyl]-1-methyl-carbapen-2-em-3-carboxylate]
ratio of oral/subcutaneous AUCs [1]: about 52%
Cmax (maximum blood concentration) ([1]; PO): 88.1 µg/mL
T1/2 (half time of blood concentration) ([1]; PO): 0.931 h
Tmax (time at the point of maximum blood concentration) ([1]; PO): 0.38 h
AUC (area under blood concentration curve) ([1]; PO): 117 µg·h/mL
Cmax (maximum blood concentration) ([1]; SC): 97.9 µg/mL
T1/2 (half time of blood concentration) ([1]; SC): 6.28 h
Tmax (time at the point of maximum blood concentration) ([1]; SC): 1.76 h
AUC (area under blood concentration curve) ([1]; SC): 226 µg·h/mL
LD50 [2, 25]: higher than 2,000 mg/kg
body temperature change and weight change [2, 25]: no distinct body temperature change nor weight loss were observed
death [2, 25]: no mice died

1-(isopropyloxycarbonyloxy)ethyl(1R,5S,6S)-2-[(1-(4-fluorobenzyl)azetidin-3-yl)thio]-6-[(R)-1-hydroxyethyl]-1-methyl-carbapen-2-em-3-carboxylate [Example 2]
ratio of oral/subcutaneous AUCs [1]: about 54%
Cmax (maximum blood concentration) ([1]; PO): 72.8 µg/mL
T1/2 (half time of blood concentration) ([1]; PO): 1.15 h
Tmax (time at the point of maximum blood concentration) ([1]; PO): 1.00 h
AUC (area under blood concentration curve) ([1]; PO): 94.8 µg·h/mL
Cmax (maximum blood concentration) ([1]; SC): 66.4 µg/mL
T1/2 (half time of blood concentration) ([1]; SC): 3.92 h
Tmax (time at the point of maximum blood concentration) ([1]; SC): 0.75 h
AUC (area under blood concentration curve) ([1]; SC): 174 µg·h/mL

C[C@@H](O)[C@H]1C(=O)N2C(C(=O)OCOC(=O)C(C)(C)C)=C(SC3CN(Cc4ccc(F)cc4)C3)[C@H](C)[C@H]12.O=P(O)(O)O [Example 10, Phosphoric Acid Salt of pivaloyloxymethyl(1R,5S,6S)-2-[(1-(4-fluorobenzyl)azetidin-3-yl)thio]-6-[(R)-1-hydroxyethyl]-1-methyl-carbapen-2-em-3-carboxylate]
body temperature change and weight change [2, 26]: no body distinct temperature change nor weight loss were observed
death [2, 26]: no mice died
HPLC Purity ([3]; 40° C., humidity 75%, 1 month): 99.69%
HPLC Purity ([3]; 40° C., humidity 75%, 1 week): 99.85%
HPLC Purity ([3]; 40° C., humidity 75%, 2 week): 99.78%
HPLC Purity ([3]; 40° C., humidity 75%, 3 week): 99.74%
HPLC Purity ([3]; Initial): 99.83%

CC(OC(=O)OC1CCCCC1)OC(=O)C1=C(SC2CN(Cc3ccc(F)cc3)C2)[C@H](C)[C@@H]2[C@@H]([C@@H](C)O)C(=O)N12 (stereo partly drawn) [Example 3, 1-(cyclohexyloxycarbonyloxy)ethyl(1R,5S,6S)-2-[(1-(4-fluorobenzyl)azetidin-3-yl)thio]-6-[(R)-1-hydroxyethyl]-1-methyl-carbapen-2-em-3-carboxylate]
ratio of oral/subcutaneous AUCs [1]: about 113%
Cmax (maximum blood concentration) ([1]; PO): 39.0 µg/mL
T1/2 (half time of blood concentration) ([1]; PO): 1.43 h
Tmax (time at the point of maximum blood concentration) ([1]; PO): 0.59 h
AUC (area under blood concentration curve) ([1]; PO): 64.5 µg·h/mL
Cmax (maximum blood concentration) ([1]; SC): 16.2 µg/mL
T1/2 (half time of blood concentration) ([1]; SC): 1.05 h
Tmax (time at the point of maximum blood concentration) ([1]; SC): 2.50 h
AUC (area under blood concentration curve) ([1]; SC): 56.9 µg·h/mL

C[C@@H](O)[C@H]1C(=O)N2C(C(=O)OCOC(=O)C(C)(C)C)=C(SC3CN(Cc4ccc(F)cc4)C3)[C@H](C)[C@H]12.O=C(O)/C=C/C(=O)O [Example 17, Fumaric Acid Salt of pivaloyloxymethyl(1R,5S,6S)-2-[(1-(4-fluorobenzyl)azetidin-3-yl)thio]-6-[(R)-1-hydroxyethyl]-1-methyl-carbapen-2-em-3-carboxylate]
body temperature change and weight change [2, 26]: no body distinct temperature change nor weight loss were observed
death [2, 26]: no mice died

C[C@@H](O)[C@H]1C(=O)N2C(C(=O)O)=C(SC3CN(Cc4ccc(F)cc4)C3)[C@H](C)[C@H]12 [Preparation Example 4, (1R,5S,6S)-2-[(1-(4-fluorobenzyl)azetidin-3-yl)thio]-6-[(R)-1-hydroxyethyl]-1-methyl-carbapen-2-em-3-carboxylic acid]
Cmax (maximum blood concentration) ([1]; PO): 3.97 µg/mL
T1/2 (half time of blood concentration) ([1]; PO): 1.32 h
Tmax (time at the point of maximum blood concentration) ([1]; PO): 0.56 h
AUC (area under blood concentration curve) ([1]; PO): 8.28 µg·h/mL
Cmax (maximum blood concentration) ([1]; SC): 68.5 µg/mL
T1/2 (half time of blood concentration) ([1]; SC): 0.76 h
Tmax (time at the point of maximum blood concentration) ([1]; SC): 0.38 h
AUC (area under blood concentration curve) ([1]; SC): 83.24 µg·h/mL
MIC [4]: <0.008-0.25
MIC [5]: 0.025-3.125
MIC [6]: 0.06-0.25
MIC [7]: 0.013-0.025
MIC [8]: 0.03-0.12
MIC [9]: 0.049-0.391
MIC [10]: 0.025-0.098
MIC [11]: 0.006-0.12
MIC [12]: 1.56 mg/L (≈ 3.85 µM)
MIC [13]: 0.122 mg/L (≈ 0.301 µM)
MIC [14]: 0.002 mg/L (≈ 0.00492 µM)
MIC [15]: 0.03 mg/L (≈ 0.0738 µM)
MIC [16]: < 0.008 mg/L
MIC [17]: 2 mg/L (≈ 4.92 µM)
MIC [18]: < 0.008 mg/L
MIC [19]: 0.03 mg/L (≈ 0.0738 µM)
MIC [20]: 0.049 mg/L (≈ 0.121 µM)
MIC [21]: 0.049 mg/L (≈ 0.121 µM)
MIC [22]: 0.049 mg/L (≈ 0.121 µM)
MIC [23]: 0.12 mg/L (≈ 0.295 µM)
MIC [24]: 0.015 mg/L (≈ 0.0369 µM)
